Data taken from US20230339970A1, “CASEIN KINASE 1 DELTA MODULATORS” (priority 2020, published 2023).

Assays:
human CSNK1D = molecular target: T1, human CSNK1D (Homo sapiens, UniProt P48730); experiment: Whole Cell nBRET CSNK1D Binding Assay; details: living CHO cells stably expressing human CSNK1D tagged with nanoluciferase; NanoBret tracer 130 nM; 2 hours at 37 C
T1 construct: expressed in transfected cells

[1] = molecular target: T2, human recombinant GST cleaved CSNK1D (Homo sapiens, UniProt P48730); experiment: Purified Enzyme Assay (ADP-Glo CSNK1D Kinase Assay); format: biochemical; details: 2 nM CSNK1D; peptide substrate 150 μM; ATP 20 μM; 45 minutes at room temperature
T2 construct: GST (cleaved yes); purchased University of Dundee clone DU 19064
T2 sequence (P48730 whole entry): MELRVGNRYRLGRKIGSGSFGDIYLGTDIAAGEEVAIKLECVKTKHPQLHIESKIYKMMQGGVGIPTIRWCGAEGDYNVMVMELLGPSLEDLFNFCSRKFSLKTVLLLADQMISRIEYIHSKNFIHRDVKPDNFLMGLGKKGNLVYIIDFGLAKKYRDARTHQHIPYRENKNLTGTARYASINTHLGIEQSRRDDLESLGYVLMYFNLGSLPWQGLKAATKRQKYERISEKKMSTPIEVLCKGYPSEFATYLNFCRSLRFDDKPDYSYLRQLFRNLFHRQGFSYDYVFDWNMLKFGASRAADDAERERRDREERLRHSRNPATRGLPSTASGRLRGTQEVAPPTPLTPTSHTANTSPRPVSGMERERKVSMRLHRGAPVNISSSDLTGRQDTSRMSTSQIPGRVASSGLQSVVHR
How it was run: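 Percent activity derived from ADP-Glo quantification of ADP produced. Reactions: compound dose-response with human recombinant GST-cleaved CSNK1D, ATP and substrate peptide PLSRTL-pS-VASLPGL, incubated 45 min at room temperature.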

T1 sequence (P48730 whole entry): as above

| Structure (SMILES) | IC50 (human CSNK1D) | IC50 [1] |
| --- | --- | --- |
| CC1(C)COc2c(-c3ccnc4cn[nH]c34)c(-c3ccc(F)cn3)nn2C1 [Example 454, 2-(5-Fluoro-2-pyridyl)-6,6-dimethyl-3-(1H-pyrazolo[4,3-b]pyridin-7-yl)-5,7-dihydropyrazolo[5,1-b][1,3]oxazine] | 127 nM | 6 nM |
| Cc1nc2[nH]ncc2c(-c2c(-c3ccc(F)cn3)nn3c2CC[C@@H]2C[C@@H]23)c1F (single isomer, unassigned) [Example 344, (5a*R,6a*S)-3-(5-Fluoro-6-methyl-1H-pyrazolo[3,4-b]pyridin-4-yl)-2-(5-fluoropyridin-2-yl)-5,5a,6,6a-tetrahydro-4H-cyclopropa[e]pyrazolo[1,5-a]pyridine] | 44 nM | 4 nM |
| CC1(C)Cn2nc(-c3ccc(F)cn3)c(-c3ccn4nccc4c3)c2O1 [Example 367, 6-(5-Fluoro-2-pyridyl)-2,2-dimethyl-7-pyrazolo[1,5-a]pyridin-5-yl-3H-pyrazolo[5,1-b]oxazole] | 566 nM | 41 nM |
| Fc1ccc(-c2nn3c(c2-c2ccncc2)OCCC3)cc1 [Example 438, 2-(4-Fluorophenyl)-3-(4-pyridyl)-6,7-dihydro-5H-pyrazolo[5,1-b][1,3]oxazine] | 113 nM | 12 nM |
| CC(=O)Nc1cc(-c2c(-c3ccc(F)cn3)nn3c2CC[C@@H]2C[C@@H]23)ccn1 (stereo in doubt) [Example 341, N-(4-((5a*R,6a*S)-2-(5-Fluoropyridin-2-yl)-5,5a,6,6a-tetrahydro-4H-cyclopropa[e]pyrazolo[1,5-a]pyridin-3-yl)pyridin-2-yl)acetamide] | 24 nM | 2 nM |
| CC1(C)CCn2nc(-c3ccc(F)cn3)c(-c3ccnc4[nH]ncc34)c2C1 [Example 50, 4-(2-(5-Fluoropyridin-2-yl)-5,5-dimethyl-4,5,6,7-tetrahydropyrazolo[1,5-a]pyridin-3-yl)-1H-pyrazolo[3,4-b]pyridine] | 28 nM | 2 nM |
| Cc1cc(-c2c(-c3ccc(F)cc3)nn3c2C2CCC3CC2)c2cn[nH]c2n1 [Example 66, 2-(4-Fluorophenyl)-3-(6-methyl-1H-pyrazolo[3,4-b]pyridin-4-yl)-4,5,6,7-tetrahydro-4,7-ethanopyrazolo[1,5-a]pyridine] | 4 nM | 2 nM |
| Fc1ccc(-c2nn3c(c2-c2ccnc4[nH]ncc24)COC2(CC2)C3)nc1 [Example 432, 2-(5-Fluoro-2-pyridyl)-3-(1H-pyrazolo[3,4-b]pyridin-4-yl)spiro[4,7-dihydropyrazolo[5,1-c][1,4]oxazine-6,1′-cyclopropane]] | 195 nM | 8 nM |
| C[C@@H]1OCc2c(-c3ccnc4[nH]ncc34)c(-c3ccc(F)cn3)nn2[C@H]1C (stereo in doubt) [Example 119, (6*S,7*S)-2-(5-Fluoropyridin-2-yl)-6,7-dimethyl-3-(1H-pyrazolo[3,4-b]pyridin-4-yl)-6,7-dihydro-4H-pyrazolo[5,1-c][1,4]oxazine] | 751 nM | 32 nM |
| Cc1nc2[nH]ncc2c(-c2c(-c3ccc(F)cn3)nn3c2CCC3)c1F [Example 9, 5-Fluoro-4-(2-(5-fluoropyridin-2-yl)-5,6-dihydro-4H-pyrrolo[1,2-b]pyrazol-3-yl)-6-methyl-1H-pyrazolo[3,4-b]pyridine] | 60 nM | 12 nM |
| Cc1cc(-c2c(-c3ccc(F)cn3)nn3c2OCC(C)C3)c2cn[nH]c2n1 (centres unmarked) [Example 197, 2-(5-Fluoropyridin-2-yl)-6-methyl-3-(6-methyl-1H-pyrazolo[3,4-b]pyridin-4-yl)-6,7-dihydro-5H-pyrazolo[5,1-b][1,3]oxazine] | 38 nM | 3 nM |
| Fc1ccc(-c2nn3c(c2-c2ccnc4[nH]ncc24)CCC(F)(COC(F)F)C3)nc1 (single isomer, unassigned) [Example 314, (*S)-4-(6-((Difluoromethoxy)methyl)-6-fluoro-2-(5-fluoropyridin-2-yl)-4,5,6,7-tetrahydropyrazolo[1,5-a]pyridin-3-yl)-1H-pyrazolo[3,4-b]pyridine] | 14 nM | 4 nM |
| Fc1ccc(-c2nn3c(c2-c2ccnc4[nH]ncc24)OCC2(C3)CC2(F)F)nc1 (single isomer, unassigned) [Example 479, (*R)-2,2-Difluoro-2′-(5-fluoropyridin-2-yl)-3′-1H-pyrazolo[3,4-b]pyridin-4-yl)-5′H,7′H-spiro[cyclopropane-1,6′-pyrazolo[5,1-b][1,3]oxazine]] | 1320 nM | 32 nM |
| Fc1ccc(-c2nn3c(c2-c2ccnc4[nH]ncc24)OCC2(COC2)C3)cc1 [Example 210, 2-(4-Fluorophenyl)-3-(1H-pyrazolo[3,4-b]pyridin-4-yl)spiro[5,7-dihydropyrazolo[5,1-b][1,3]oxazine-6,3′-oxetane]] | 23 nM | < 0.5 nM |
| Fc1ccc(-c2nn3c(c2-c2ccnc4[nH]ncc24)CCC3)nc1 [Example 7, 4-[2-(5-Fluoro-2-pyridyl)-5,6-dihydro-4H-pyrrolo[1,2-b]pyrazol-3-yl]-1H-pyrazolo[3,4-b]pyridine] | 136 nM | 7 nM |
| Cc1n[nH]c2nccc(-c3c(-c4ccc(F)cc4)nn4c3COC(C(F)(F)F)C4)c12 (single isomer, unassigned) [Example 373, (*R)-2-(4-Fluorophenyl)-3-(3-methyl-1H-pyrazolo[3,4-b]pyridin-4-yl)-6-(trifluoromethyl)-6,7-dihydro-4H-pyrazolo[5,1-c][1,4]oxazine] | > 10000 nM | 306 nM |
| Fc1ccc(-c2nn3c(c2-c2ccnc4[nH]ccc24)CCCC3)nc1 [Example 3, 4-[2-(5-Fluoro-2-pyridyl)-4,5,6,7-tetrahydropyrazolo[1,5-a]pyridin-3-yl]-1H-pyrrolo[2,3-b]pyridine] | 41 nM | 8 nM |
| CC1(C)Cn2nc(-c3ccc(F)cn3)c(-c3ccnc4[nH]nc(Br)c34)c2CO1 [Example 152, 3-(3-Bromo-1H-pyrazolo[3,4-b]pyridin-4-yl)-2-(5-fluoropyridin-2-yl)-6,6-dimethyl-6,7-dihydro-4H-pyrazolo[5,1-c][1,4]oxazine] | 25 nM | 3 nM |
| CCC(=O)Nc1cc(-c2c(-c3ccc(F)cc3)nn3c2OCC2(CC2)C3)ccn1 [Example 455, N-(4-(2′-(4-Fluorophenyl)-5′H,7′H-spiro[cyclopropane-1,6′-pyrazolo[5,1-b][1,3]oxazin]-3′-yl)pyridin-2-yl)propionamide] | 1 nM | 1 nM |

Continued, values first:

| IC50 (human CSNK1D) | IC50 [1] | Structure (SMILES) |
| --- | --- | --- |
| 671 nM | 29 nM | Cc1cc(-c2c(-c3ccc(F)cn3)nn3c2CC(F)C3)c2cn[nH]c2n1 (centres unmarked) [Example 13, 4-(5-Fluoro-2-(5-fluoropyridin-2-yl)-5,6-dihydro-4H-pyrrolo[1,2-b]pyrazol-3-yl)-6-methyl-1H-pyrazolo[3,4-b]pyridine] |
| 6 nM | 1 nM | Cc1cc(-c2c(-c3ccc(F)cc3)nn3c2[C@@H]2C[C@@H]2C3)c2cn[nH]c2n1 (relative stereo) [Example 276, (3b*R,4a*S)-2-(4-Fluorophenyl)-3-(6-methyl-1H-pyrazolo[3,4-b]pyridin-4-yl)-3b,4,4a,5-tetrahydrocyclopropa[3,4]pyrrolo[1,2-b]pyrazole] |
| 4 nM | 1 nM | Fc1ccc(-c2nn3c(c2-c2ccnc4[nH]ncc24)OCC2(C3)CC2(F)F)nc1 (single isomer, unassigned) [Example 478, (*S)-2,2-Difluoro-2′-(5-fluoropyridin-2-yl)-3′-1H-pyrazolo[3,4-b]pyridin-4-yl)-5′H,7′H-spiro[cyclopropane-1,6′-pyrazolo[5,1-b][1,3]oxazine]] |
| 1920 nM | 59 nM | Cc1nc(-c2nn3c(c2-c2ccnc4[nH]ncc24)COC(C)(C)C3)ccc1Cl [Example 163, 2-(5-Chloro-6-methylpyridin-2-yl)-6,6-dimethyl-3-(1H-pyrazolo[3,4-b]pyridin-4-yl)-6,7-dihydro-4H-pyrazolo[5,1-c][1,4]oxazine] |
| 454 nM | 20 nM | CC(=O)Nc1cc(-c2c(-c3ccc(F)cn3)nn3c2CC[C@H]2C[C@H]23)ccn1 (stereo in doubt) [Example 342, N-(4-((5a*S,6a*R)-2-(5-Fluoropyridin-2-yl)-5,5a,6,6a-tetrahydro-4H-cyclopropa[e]pyrazolo[1,5-a]pyridin-3-yl)pyridin-2-yl)acetamide] |
| 24 nM | 2 nM | [2H]C([2H])([2H])[C@]1(C([2H])([2H])F)CCc2c(-c3c(F)cnc4[nH]ncc34)c(-c3ccc(F)cn3)nn2C1 (single isomer, unassigned) [Example 295, (*S)-5-Fluoro-4-(6-(fluoromethyl-d2)-2-(5-fluoropyridin-2-yl)-6-(methyl-d5)-4,5,6,7-tetrahydropyrazolo[1,5-a]pyridin-3-yl)-1H-pyrazolo[3,4-b]pyridine] |
| 5 nM | 1 nM | Fc1ccc(-c2nn3c(c2-c2ccnc4[nH]ncc24)C[C@@H]2C[C@@H]23)cc1 [Example 268, (4aS,5aS)-2-(4-Fluorophenyl)-3-(1H-pyrazolo[3,4-b]pyridin-4-yl)-4,4a,5,5a-tetrahydrocyclopropa[4,5]pyrrolo[1,2-b]pyrazole] |
| 141 nM | 6 nM | CC1(C)Cn2nc(-c3ccc(F)cn3)c(-c3cc(C(F)F)nc4[nH]ncc34)c2CO1 [Example 390, 3-[6-(Difluoromethyl)-1H-pyrazolo[3,4-b]pyridin-4-yl]-2-(5-fluoro-2-pyridyl)-6,6-dimethyl-4,7-dihydropyrazolo[5,1-c][1,4]oxazine] |
| 2 nM | 1 nM | Cc1cc(-c2c(-c3ccc(F)cc3)nn3c2OCC2(CC2)C3)c2cn[nH]c2n1 [Example 461, 2′-(4-Fluorophenyl)-3′-(6-methyl-1H-pyrazolo[3,4-b]pyridin-4-yl)-5′H,7′H-spiro[cyclopropane-1,6′-pyrazolo[5,1-b][1,3]oxazine]] |
